Legend:
[1] = target: T1, AKT2 (Homo sapiens, UniProt P31751); experiment: KinaseSeeker competition binding assay
T1 construct: made in house; host or cells: cell-free system (rabbit reticulocyte lysate)
Procedure: (§1) Compound Reno647 was profiled against the following panel of kinases at 2 μM using the KinaseSeeker™ assay: ABL1, AKT1, AKT2, AKT3, ALK, AURKA, AXL, BRAF, BTK, CDK2, CDK5, CDK7, CDK8, CSF1R, DDR1, EGFR del L747-P753 InsS, EGFR (L861Q), EGFR (G719S), EGFR, EGFR (L858R), EPHA2, EPHB2, FGFR3, FLT1/VEGFR1, FLT2/FGFR1, FLT3, FLT4/VEGFR3, GSK-3a, HER2, IGF1R, INSR, KIT, LIMK1, MET, MLK2/MAP3K10, RPS6KA5/MSK1, MUSK, p38a/MAPK12, PDGFRA, PDGFRB, PDK1, RET, RIPK2, RPS6KA1/RSK1, SRC, TEC, TESK1, TRKB, VEGFR2, and YES 1.
(§2) KinaseSeeker is a homogeneous competition binding assay where the displacement of an active site dependent probe by an inhibitor is measured by a change in luminescence signal (see FIG. 7). Luminescence readout translates into a highly sensitive and robust assay with low background and minimal interference from test compounds.
(§3) (Jester, Cox et al. 2010; Jester, Gaj et al. 2012): 10 mM stock of compound Reno647 was diluted in DMSO to a concentration of 50 μM. Prior to initiating a profiling campaign, the compound was evaluated for false positive against split-luciferase. The compound was then screened in duplicate against each of the kinases. For kinase assays, each Cfluc-Kinase was translated along with Fos-Nfluc using a cell-free system (rabbit reticulocyte lysate) at 30° C. for 90 min. A 24 μL aliquot of this lysate containing either 1 μL of DMSO (for no-inhibitor control) or compound solution in DMSO (2 LM final concentration) was incubated for 30 minutes at room temperature followed by 1 hour in the presence of a kinase specific probe. A 80 μL of luciferin assay reagent was added to each solution and luminescence was immediately measured on a luminometer.
(§4) The % Inhibition and % Activity Remaining were calculated using the following equations:
(§5) % inhibition=(ALUcontrol−ALUsample)×100
(§6) % activity=100−% inhibition.

[2] = target: T2, BTK (Homo sapiens, UniProt Q06187); experiment: KinaseSeeker competition binding assay
T2 construct: made in house; host or cells: cell-free system (rabbit reticulocyte lysate)
T2 sequence (Q06187 whole entry): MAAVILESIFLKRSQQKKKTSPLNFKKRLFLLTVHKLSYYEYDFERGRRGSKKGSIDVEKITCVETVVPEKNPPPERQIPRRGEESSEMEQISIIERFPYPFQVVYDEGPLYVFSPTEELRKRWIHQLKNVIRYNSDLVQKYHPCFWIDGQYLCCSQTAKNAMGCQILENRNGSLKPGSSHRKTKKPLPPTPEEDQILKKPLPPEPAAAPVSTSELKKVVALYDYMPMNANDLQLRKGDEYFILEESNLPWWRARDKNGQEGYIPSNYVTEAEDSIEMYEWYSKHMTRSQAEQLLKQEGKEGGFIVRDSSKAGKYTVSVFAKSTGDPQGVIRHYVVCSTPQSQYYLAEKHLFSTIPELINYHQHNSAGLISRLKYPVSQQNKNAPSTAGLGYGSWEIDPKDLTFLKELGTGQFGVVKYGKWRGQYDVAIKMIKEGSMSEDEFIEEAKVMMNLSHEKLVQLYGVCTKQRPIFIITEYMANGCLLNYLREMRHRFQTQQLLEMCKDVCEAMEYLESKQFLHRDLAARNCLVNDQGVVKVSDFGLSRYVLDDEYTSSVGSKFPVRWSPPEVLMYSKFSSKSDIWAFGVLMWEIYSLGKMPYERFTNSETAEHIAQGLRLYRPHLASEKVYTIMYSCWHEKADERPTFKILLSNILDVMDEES
Procedure: as §1, §2, §3, §4, §5, §6

[3] = target: T3, EPHA2 (Homo sapiens, UniProt P29317); experiment: KinaseSeeker competition binding assay
T3 construct: made in house; host or cells: cell-free system (rabbit reticulocyte lysate)
Procedure: as §1, §2, §3, §4, §5, §6

[4] = target: T4, FLT2 (Homo sapiens, UniProt P11362); experiment: KinaseSeeker competition binding assay
T4 construct: made in house; host or cells: cell-free system (rabbit reticulocyte lysate)
Procedure: as §1, §2, §3, §4, §5, §6

[5] = target: T5, FLT3 (Homo sapiens, UniProt P36888); experiment: KinaseSeeker competition binding assay
T5 construct: made in house; host or cells: cell-free, rabbit reticulocyte lysate
T5 sequence (P36888 27-993): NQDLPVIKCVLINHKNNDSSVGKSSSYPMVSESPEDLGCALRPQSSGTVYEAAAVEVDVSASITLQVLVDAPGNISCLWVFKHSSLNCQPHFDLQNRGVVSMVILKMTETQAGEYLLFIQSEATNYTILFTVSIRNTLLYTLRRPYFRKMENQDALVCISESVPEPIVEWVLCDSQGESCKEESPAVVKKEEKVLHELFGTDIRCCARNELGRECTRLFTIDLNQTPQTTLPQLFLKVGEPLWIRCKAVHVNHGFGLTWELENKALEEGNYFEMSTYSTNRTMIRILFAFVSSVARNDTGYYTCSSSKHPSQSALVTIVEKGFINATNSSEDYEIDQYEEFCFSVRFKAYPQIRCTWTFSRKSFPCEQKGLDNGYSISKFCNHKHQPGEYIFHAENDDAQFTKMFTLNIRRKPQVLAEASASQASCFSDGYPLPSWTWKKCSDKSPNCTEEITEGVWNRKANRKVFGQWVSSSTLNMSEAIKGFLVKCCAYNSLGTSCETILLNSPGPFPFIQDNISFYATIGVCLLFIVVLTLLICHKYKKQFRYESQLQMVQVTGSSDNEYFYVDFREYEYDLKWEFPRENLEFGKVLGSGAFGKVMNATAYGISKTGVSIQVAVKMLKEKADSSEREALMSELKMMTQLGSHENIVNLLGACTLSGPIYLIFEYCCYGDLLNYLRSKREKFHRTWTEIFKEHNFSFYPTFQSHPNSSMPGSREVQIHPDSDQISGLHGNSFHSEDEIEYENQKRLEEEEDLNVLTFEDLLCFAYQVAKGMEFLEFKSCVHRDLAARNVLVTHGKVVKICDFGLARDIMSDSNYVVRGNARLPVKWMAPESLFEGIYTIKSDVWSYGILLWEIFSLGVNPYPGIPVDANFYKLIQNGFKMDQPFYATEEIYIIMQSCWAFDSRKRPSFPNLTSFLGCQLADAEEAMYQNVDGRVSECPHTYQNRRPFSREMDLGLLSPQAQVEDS
Procedure: as §1, §2, §3, §4, §5, §6

[6] = target: T6, HER2 (Homo sapiens, UniProt P04626); experiment: KinaseSeeker competition binding assay
T6 construct: made in house; host or cells: cell-free, rabbit reticulocyte lysate
Procedure: as §1, §2, §3, §4, §5, §6

[7] = target: T7, IGF1R (Homo sapiens, UniProt P08069); experiment: KinaseSeeker competition binding assay
T7 construct: made in house; host or cells: cell-free, rabbit reticulocyte lysate
Procedure: as §1, §2, §3, §4, §5, §6

[8] = target: T8, KIT-KD (Homo sapiens, UniProt P10721); experiment: KinaseSeeker competition binding assay
T8 construct: KIT-KD; made in house; host or cells: cell-free, rabbit reticulocyte lysate
Procedure: as §1, §2, §3, §4, §5, §6

[9] = target: T9, LIMK1 (Homo sapiens, UniProt P53667); experiment: KinaseSeeker competition binding assay
T9 construct: made in house; host or cells: cell-free, rabbit reticulocyte lysate
T9 sequence (P53667 whole entry): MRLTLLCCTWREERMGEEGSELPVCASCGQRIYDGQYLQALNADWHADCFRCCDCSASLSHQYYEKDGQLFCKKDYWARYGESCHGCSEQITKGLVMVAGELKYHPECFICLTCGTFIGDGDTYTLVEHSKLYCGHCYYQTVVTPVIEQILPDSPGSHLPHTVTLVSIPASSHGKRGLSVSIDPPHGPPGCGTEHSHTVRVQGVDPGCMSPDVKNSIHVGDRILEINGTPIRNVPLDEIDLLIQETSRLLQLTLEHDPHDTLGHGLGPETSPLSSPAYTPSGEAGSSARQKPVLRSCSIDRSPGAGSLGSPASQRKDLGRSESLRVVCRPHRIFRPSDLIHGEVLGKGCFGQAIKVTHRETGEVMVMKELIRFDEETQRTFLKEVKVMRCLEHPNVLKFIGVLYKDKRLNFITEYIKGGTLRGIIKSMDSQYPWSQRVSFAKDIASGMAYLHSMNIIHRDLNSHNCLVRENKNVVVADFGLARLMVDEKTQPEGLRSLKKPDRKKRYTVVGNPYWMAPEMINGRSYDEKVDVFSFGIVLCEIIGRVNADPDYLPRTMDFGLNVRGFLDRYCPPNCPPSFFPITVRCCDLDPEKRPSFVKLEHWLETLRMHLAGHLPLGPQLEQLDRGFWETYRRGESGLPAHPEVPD
Procedure: as §1, §2, §3, §4, §5, §6

[10] = target: T10, MET (Homo sapiens, UniProt P08581); experiment: KinaseSeeker competition binding assay
T10 construct: made in house; host or cells: cell-free, rabbit reticulocyte lysate
Procedure: as §1, §2, §3, §4, §5, §6

[11] = target: T11, PDGFRA (Homo sapiens, UniProt P16234); experiment: KinaseSeeker competition binding assay
T11 construct: made in house; host or cells: cell-free, rabbit reticulocyte lysate
T11 sequence (P16234 24-1089): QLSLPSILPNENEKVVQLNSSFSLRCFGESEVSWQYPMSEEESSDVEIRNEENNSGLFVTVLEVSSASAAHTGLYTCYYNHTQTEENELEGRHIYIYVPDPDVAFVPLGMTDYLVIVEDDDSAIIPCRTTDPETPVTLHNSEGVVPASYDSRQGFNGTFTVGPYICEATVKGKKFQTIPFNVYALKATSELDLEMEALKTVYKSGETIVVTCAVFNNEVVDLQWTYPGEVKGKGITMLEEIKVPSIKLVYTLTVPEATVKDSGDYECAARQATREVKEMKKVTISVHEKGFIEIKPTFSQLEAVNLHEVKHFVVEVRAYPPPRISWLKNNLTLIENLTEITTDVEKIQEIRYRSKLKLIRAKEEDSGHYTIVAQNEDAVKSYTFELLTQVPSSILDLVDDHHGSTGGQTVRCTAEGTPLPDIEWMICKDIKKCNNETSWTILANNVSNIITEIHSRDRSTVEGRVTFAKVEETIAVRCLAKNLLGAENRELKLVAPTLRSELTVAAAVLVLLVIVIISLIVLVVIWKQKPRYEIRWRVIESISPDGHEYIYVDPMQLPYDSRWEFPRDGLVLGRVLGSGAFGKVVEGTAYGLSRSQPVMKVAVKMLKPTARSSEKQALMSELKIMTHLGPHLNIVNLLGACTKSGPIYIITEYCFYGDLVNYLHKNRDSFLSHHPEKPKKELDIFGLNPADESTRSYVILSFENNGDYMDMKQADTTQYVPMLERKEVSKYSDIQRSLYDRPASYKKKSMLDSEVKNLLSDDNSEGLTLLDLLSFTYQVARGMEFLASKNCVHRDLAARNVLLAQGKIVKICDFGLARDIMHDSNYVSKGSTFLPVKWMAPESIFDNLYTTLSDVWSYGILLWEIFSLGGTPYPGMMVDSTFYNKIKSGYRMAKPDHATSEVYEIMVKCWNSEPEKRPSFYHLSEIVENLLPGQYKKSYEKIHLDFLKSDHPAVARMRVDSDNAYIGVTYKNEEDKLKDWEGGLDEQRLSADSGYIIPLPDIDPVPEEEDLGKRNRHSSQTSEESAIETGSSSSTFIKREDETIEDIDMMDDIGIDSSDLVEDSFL
Procedure: as §1, §2, §3, §4, §5, §6

[12] = target: T12, PDGFRB (Homo sapiens, UniProt P09619); experiment: KinaseSeeker competition binding assay
T12 construct: made in house; host or cells: cell-free, rabbit reticulocyte lysate
T12 sequence (P09619 33-1106): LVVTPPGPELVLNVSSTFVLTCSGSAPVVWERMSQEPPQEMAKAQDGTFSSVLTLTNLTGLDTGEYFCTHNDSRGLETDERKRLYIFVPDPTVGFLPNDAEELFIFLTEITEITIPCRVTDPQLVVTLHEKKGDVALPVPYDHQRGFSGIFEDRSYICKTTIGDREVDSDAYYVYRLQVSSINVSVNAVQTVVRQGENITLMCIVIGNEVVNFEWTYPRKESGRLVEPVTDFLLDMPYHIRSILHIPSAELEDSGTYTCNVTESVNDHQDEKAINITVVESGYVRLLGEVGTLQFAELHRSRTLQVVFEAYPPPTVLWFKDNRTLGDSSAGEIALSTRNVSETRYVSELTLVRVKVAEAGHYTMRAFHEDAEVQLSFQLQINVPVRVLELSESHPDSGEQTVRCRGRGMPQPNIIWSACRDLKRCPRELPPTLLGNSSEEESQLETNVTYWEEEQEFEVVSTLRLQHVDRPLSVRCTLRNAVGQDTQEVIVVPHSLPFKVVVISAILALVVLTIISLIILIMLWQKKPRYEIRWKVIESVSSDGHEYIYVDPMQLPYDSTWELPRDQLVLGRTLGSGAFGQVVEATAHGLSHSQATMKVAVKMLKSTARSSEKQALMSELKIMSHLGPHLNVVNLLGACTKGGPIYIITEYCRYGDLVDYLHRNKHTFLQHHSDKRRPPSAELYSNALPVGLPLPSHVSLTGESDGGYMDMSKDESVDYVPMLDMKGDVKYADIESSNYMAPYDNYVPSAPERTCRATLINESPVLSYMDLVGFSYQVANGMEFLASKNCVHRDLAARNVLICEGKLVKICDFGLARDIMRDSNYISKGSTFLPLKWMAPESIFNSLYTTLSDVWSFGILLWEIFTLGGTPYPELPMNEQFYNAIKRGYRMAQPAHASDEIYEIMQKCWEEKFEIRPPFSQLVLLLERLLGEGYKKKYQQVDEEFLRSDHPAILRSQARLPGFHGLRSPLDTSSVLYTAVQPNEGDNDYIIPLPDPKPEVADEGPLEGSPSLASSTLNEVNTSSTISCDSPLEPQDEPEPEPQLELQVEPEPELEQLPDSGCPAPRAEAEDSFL
Procedure: as §1, §2, §3, §4, §5, §6

[13] = target: T13, RSK1 (Homo sapiens, UniProt Q15418); experiment: KinaseSeeker competition binding assay
T13 construct: made in house; host or cells: cell-free, rabbit reticulocyte lysate
Procedure: as §1, §2, §3, §4, §5, §6

[14] = target: T14, TEC (Homo sapiens, UniProt P42680); experiment: KinaseSeeker competition binding assay
T14 construct: made in house; host or cells: cell-free, rabbit reticulocyte lysate
Procedure: as §1, §2, §3, §4, §5, §6

[15] = target: T15, TESK1 (Homo sapiens, UniProt Q15569); experiment: KinaseSeeker competition binding assay
T15 construct: made in house; host or cells: cell-free, rabbit reticulocyte lysate
T15 sequence (Q15569 whole entry): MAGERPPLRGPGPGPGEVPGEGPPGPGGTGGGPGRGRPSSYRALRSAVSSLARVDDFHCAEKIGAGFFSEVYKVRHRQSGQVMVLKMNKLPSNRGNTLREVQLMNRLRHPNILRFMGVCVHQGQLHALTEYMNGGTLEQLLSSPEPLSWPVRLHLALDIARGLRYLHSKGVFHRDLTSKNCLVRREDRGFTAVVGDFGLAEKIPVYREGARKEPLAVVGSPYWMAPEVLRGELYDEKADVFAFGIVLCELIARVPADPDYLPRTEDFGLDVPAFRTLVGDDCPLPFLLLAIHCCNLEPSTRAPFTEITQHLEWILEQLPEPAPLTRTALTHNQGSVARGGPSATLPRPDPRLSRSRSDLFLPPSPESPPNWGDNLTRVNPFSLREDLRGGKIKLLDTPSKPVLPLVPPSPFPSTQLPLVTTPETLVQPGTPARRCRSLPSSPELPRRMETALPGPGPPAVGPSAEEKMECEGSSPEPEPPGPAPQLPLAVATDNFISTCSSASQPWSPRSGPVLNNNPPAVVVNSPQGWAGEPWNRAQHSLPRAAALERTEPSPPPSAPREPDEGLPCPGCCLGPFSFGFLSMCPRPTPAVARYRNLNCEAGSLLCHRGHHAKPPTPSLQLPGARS
Procedure: as §1, §2, §3, §4, §5, §6

[16] = system: HCC827-OR16; experiment: qRT-PCR expression of p21; assay type: cell-based, human; conditions: HCC827-OR16, 24 h, q-RT-PCR
Procedure: FIG. 10 depicts the effect of Reno647 on expressions of Caspase 3, Caspase 9 and p21 in HCC827-P and on Box, Bcl2, p53 and p21 in HCC827-OR16 cells. […] Total cellular RNA was extracted and cDNA was prepared followed by qRT-PCR using specific probes as described in the section of Materials and Methods. Tgene ΔCt value was normalized for GAPDH by calculating ΔCt=Ctgene−CtGAPDH per sample.
HCC827 P or other indicated cells at exponential growth phase were treated with indicated concentrations of compounds for 24 hours. Total cellular RNA was prepared from lysed tumor cells using an RNA Purification kit (ThermoFisher Scientific). The first-strand of cDNA was synthesized using a High Capacity cDNA reverse transcription kit (ThermoFisher Scientific) in PTC-100 Peltier Thermal Cycler PCR. The resultant cDNA (0.5-1 μL) was used in a 10 μl reaction by using Taqman Universal PCR Master Mix (ThermoFisher Scientific). The pre-designed primers and probe were purchased from Life Technologies and used for qPCR. Human GAPDH was used as an internal control. qPCR was performed using Applied Biosystems StepOne and StepOnePlus Real-Time PCR Systems according manufacturer's instructions. An initial PCR denaturation step was performed at 95° C. for 20 seconds. […]

- remaining binding at 2 µM [1]: 100%
- remaining binding at 2 µM [2]: 93.1%
- remaining binding at 2 µM [3]: 100%
- remaining binding at 2 µM [4]: 51.7%
- remaining binding at 2 µM [5]: 100%
- remaining binding at 2 µM [6]: 100%
- remaining binding at 2 µM [7]: 95.5%
- remaining binding at 2 µM [8]: 90%
- remaining binding at 2 µM [9]: 100%
- remaining binding at 2 µM [10]: 100%
- remaining binding at 2 µM [11]: 96.4%
- remaining binding at 2 µM [12]: 76.6%
- remaining binding at 2 µM [13]: 100%
- remaining binding at 2 µM [14]: 97.4%
- remaining binding at 2 µM [15]: 100%
Compound: C#Cc1cccc(Nc2ncnc3cc(OCCOC)c(NC(=O)c4ccc(F)c([N+](=O)[O-])c4)cc23)c1 [Reno647, 4-Fluoro-N-[4-(3-ethynyl-phenylamino)-7-(2-methoxy-ethoxy)-quinazolin-6-yl]-3-nitro-benzamide]
- p21 expression [16]: significant induction
